Among the data in patent US6288101A, “Imidazoles with serotonin receptor binding activity” (Virginia Commonwealth University, priority 1999, dated 2001) are EC50 values, retold here.

The target of this test is T1, 5-HT1D -like receptor (Oryctolagus cuniculus, UniProt P49144).
T1 construct: Ring segments of the vein (4-5 mm in length) were cut and the endothelium gently removed; from tissue; host or cells: saphenous vein rings, endothelium removed, male New Zealand White rabbit
Nature of the test: 5-HT1D-like receptor agonist activity: contraction of the rabbit isolated saphenous vein. Also on record: species or system rabbit (New Zealand White). The conditions noted are these: rabbit isolated saphenous vein rings, endothelium removed, 37° C., pH 7.4; prazosin, idazoxan and indomethacin (1 μM each) present; read-out: EC50 (concentration of the compound which causes 50% of the maximum contraction effected by it). On the procedure:
The saphenous veins from both the left and right side were cleaned of fat and connective tissue and placed in Krebs solution (118 mM NaCl, 11 mM glucose, 25 mM NaHCO3, 4.7 mM KCl, 2.5 mM CaCl2.2H2 O, 1.2 mM KH2 PO4, and 1.2 mM MgSO4.7H2 O. Ring segments of the vein (4-5 mm in length) were cut and the endothelium gently removed. The segments were mounted in 10 mL baths containing Krebs buffer and were constantly aerated with 95% oxygen/5% carbon dioxide and maintained at 37° C. and pH 7.4 in order to record the isometric tension. A resting tension of 2.5 g was applied and the tissues allowed to equilibrate for 90 minutes, with washing every 15-20 minutes. After the equilibrium period, the rings were depolarized by the addition of two aliquots of KCl (80 mM final concentration) separated by a 20 minute washing period. The tissues were then exposed to prazosin, idazoxan and indomethacin (all 1 μM final concentration) for 30 minutes in order to exclude the actions of α1 - and α2 -adrenergic receptors and prostaglandin receptors respectively. […] Responses were calculated as a percentage of the maximal contraction evoked by 80 mM KCl. Only one compound was tested per preparation.
EC50 represents the concentration of the compound which causes 50% of the maximum contraction effected by it.

T1 sequence (P49144 whole entry): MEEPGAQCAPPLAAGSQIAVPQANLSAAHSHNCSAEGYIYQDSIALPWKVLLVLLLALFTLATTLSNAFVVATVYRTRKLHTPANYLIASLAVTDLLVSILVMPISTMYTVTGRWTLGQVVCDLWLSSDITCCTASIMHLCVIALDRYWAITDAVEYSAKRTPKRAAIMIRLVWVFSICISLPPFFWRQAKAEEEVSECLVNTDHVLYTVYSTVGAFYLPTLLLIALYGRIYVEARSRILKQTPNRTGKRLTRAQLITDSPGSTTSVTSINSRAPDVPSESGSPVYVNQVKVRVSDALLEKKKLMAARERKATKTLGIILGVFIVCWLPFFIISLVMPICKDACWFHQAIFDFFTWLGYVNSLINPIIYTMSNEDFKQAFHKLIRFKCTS

In the case of `Cc1cc(Br)cc(C)c1Cc1ncc[nH]1`, the EC50 stood at 9.3 µM.

As to `Cc1cc(C(C)(C)C)cc(C)c1Cc1ncc[nH]1`, the EC50 came to 0.13 µM.
